These are literature values, as cited in US12251361B2, “Solutions for oral dosage” (LIQMEDS WORLDWIDE LIMITED, priority 2019, dated 2025).

The structures appear in SMILES notation.

In the case of `CN(C)CCC=C1c2ccccc2CCc2ccccc21.Cl` [Amitriptyline HCl, 3-(10,11-dihydro-5H-dibenzo[a,d]cycloheptene-5-ylidene)-N,N-dimethyl-1-propanamine hydrochloride], the Solubility in water entry is recorded as “freely soluble”.
